Read-outs that look alike come from different tables or passages of the source.
Assays:
[1] = system: LLC-PK1 cells (lacking P-gp); test: Transport of digoxin and ginsenosides across LLC-PK1 cell monolayers; assay type: in vitro ADME; details: for Effect of SLE on transport (AP→BL, BL→AP): SLE 2.0 and 10.0 µg/mL; for Effect of verapamil on transport (efflux ratio): 10 µM verapamil
Protocol: (§1) LLC-PK1 cells, a cell line lacking P-gp, and the derived cell line L-MDR1, which over-express human MDR1-encoded P-gp, were grown in minimum essential medium with supplements at 37°C, 5% CO2, and 95% humidity. LLC-PK1 and L-MDR1 cells were seeded at a density of 12×10^6 cells per 150-cm^2 flask and grown for 7 days in medium 199 supplemented with 2 mM glutamine, 10% fetal bovine serum, 10 mg/500 mL of streptomycin, and 10,000 IU/500 mL of penicillin. To ensure a constant expression level of transport protein, L-MDR1 cells were grown in the presence of 640 nM vincristine. Cells were grown as monolayer on polycarbonate membrane filters (Transwell; Costar Corporation, Cambridge, MA) as outlined previously. Transepithelial resistance was measured in each well using a Millicell ERS ohmmeter (Millipore, Bedford, MA); wells registering a resistance of 200 ohms or greater, after correcting for the resistance obtained in control blank wells, were used in the transport experiments.
(§2) The LLC-PK1 and L-MDR1 cells were washed with warm Hank's balanced salt solution HBSS (pH 7.4) twice before transport experiment. HBSS containing verapamil (10 µM), SLE (2.0 and 10.0 µg/mL) or blank HBSS (control) was then loaded into both apical and basolateral chambers. After incubation at 37°C for 1.5 h, GE (100 µg/mL) was added to either the apical or basolateral side to evaluate the transport in absorptive and secretive directions, respectively. The cell monolayer was then incubated for another 2 h. Finally, the concentrations of ginsenosides were determined by LC/MS. All experiments were conducted in triplicate.
(§3) For the transport assay, the apparent permeability (P app, cm/s) in each direction (A→B and B→A) was calculated as follows, where A is the surface area of the membrane inserts (0.0804 cm^2), C 0 is the initial concentration of the compound applied in the donor compartment (2 µM), and △Q is the amount (micromoles) of compound transported over time △t (5 h = 18,000 s): [drawing 1]
(§4) The efflux ratio (ER) was a dimensionless number calculated as the ratio of the apparent permeability in the B→A direction divided by the apparent permeability in the A→B direction. [drawing 2]

[2] = biological target: human MDR1-encoded P-gp (L-MDR1 cells) (Homo sapiens, UniProt P08183); test: Transport of digoxin and ginsenosides across L-MDR1 cell monolayers (efflux ratio); assay type: in vitro ADME; details: for P-gp substrate classification: summary of transport/uptake in LLC-PK1, L-MDR1 and Caco-2 cells with verapamil; for Effect of verapamil on efflux ratio / Papp / Effect of SLE on efflux ratio / transport: L-MDR1 cells; for Effect of verapamil on efflux ratio / Papp: 10 µM verapamil; for Effect of SLE on efflux ratio / transport: SLE 2.0 and 10.0 µg/mL
Sequence of human MDR1-encoded P-gp (L-MDR1 cells) (P08183 whole entry): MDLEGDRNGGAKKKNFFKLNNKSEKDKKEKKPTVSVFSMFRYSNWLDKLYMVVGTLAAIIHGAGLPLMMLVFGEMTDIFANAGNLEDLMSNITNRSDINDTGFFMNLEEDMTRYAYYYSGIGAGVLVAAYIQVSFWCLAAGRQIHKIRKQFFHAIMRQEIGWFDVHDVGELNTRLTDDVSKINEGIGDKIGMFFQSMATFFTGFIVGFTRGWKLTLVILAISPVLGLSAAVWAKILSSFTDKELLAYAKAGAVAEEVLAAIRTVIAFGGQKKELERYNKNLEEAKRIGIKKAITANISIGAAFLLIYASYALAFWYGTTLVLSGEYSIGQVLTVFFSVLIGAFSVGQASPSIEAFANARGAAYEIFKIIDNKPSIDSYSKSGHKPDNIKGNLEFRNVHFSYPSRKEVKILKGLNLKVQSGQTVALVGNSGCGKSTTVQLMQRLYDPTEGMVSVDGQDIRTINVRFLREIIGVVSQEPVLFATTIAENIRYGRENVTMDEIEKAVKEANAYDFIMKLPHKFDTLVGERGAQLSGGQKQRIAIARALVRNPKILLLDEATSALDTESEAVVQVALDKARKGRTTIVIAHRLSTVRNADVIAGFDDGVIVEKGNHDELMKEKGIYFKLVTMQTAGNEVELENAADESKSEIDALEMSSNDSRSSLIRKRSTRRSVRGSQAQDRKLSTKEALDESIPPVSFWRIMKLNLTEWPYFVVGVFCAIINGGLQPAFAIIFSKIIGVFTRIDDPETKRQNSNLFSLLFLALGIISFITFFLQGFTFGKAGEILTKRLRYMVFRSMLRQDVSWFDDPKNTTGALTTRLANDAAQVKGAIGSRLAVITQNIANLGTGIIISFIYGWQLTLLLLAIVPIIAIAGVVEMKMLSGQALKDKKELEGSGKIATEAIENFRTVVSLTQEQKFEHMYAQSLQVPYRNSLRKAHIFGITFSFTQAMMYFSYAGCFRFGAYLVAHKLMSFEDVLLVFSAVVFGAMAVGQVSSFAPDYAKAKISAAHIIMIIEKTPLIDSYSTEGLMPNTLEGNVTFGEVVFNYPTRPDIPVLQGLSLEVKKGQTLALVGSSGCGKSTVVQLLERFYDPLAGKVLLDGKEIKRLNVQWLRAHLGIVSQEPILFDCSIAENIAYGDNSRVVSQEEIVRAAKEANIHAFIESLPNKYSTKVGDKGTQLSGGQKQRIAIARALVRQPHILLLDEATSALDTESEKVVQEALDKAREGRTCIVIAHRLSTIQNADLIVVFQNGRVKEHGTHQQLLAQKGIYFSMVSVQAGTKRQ
Protocol: as §1, §2, §3, §4

[3] = Rat plasma pharmacokinetics after single-dose vehicle/SLE and digoxin or GE; assay type: in vivo, Sprague-Dawley rats; details: rats; for half-life / AUC / Cmax / AUC(0-inf) / MRT inf / Tmax: female, Sprague-Dawley, rat, plasma, po; for half-life / AUC / Cmax / AUC(0-inf) / MRT inf / Tmax / AUCINF_obs / Cl_F_obs: 2 h later digoxin 0.5 mg/kg or GE 120 mg/kg ig; for half-life: read-out: t1/2 (converted); for AUC(0-inf): read-out: AUCINF_obs; for MRT inf: read-out: MRTINF_obs; for Tmax: read-out: Tmax; for Effect of SLE treatment on Cmax / Increase of AUC (AUC0-∞) by coadministration of SLE: single-dose SLE 500 mg/kg vs vehicle, GE ig
Protocol: This study was carried out in strict accordance with the recommendations in the Guide for the Care and Use of Laboratory Animals of the National Institutes of Health. The protocol was approved by the Committee on the Ethics of Animal Experiments of the China Pharmaceutical University. All surgery was performed under sodium pentobarbital anesthesia, and all efforts were made to minimize suffering. Female healthy Sprague-Dawley rats (200±20 g) were purchased from the Laboratory Animal Center of Peking University Health Science Center (Beijing, PR China) and kept in an environmentally controlled breeding room for at least 3 days before experimentation. The rats were fed with standard laboratory food and water and fasted overnight but with free access to water before the test. To evaluate the effect of single treatment of SLE on the pharmacokinetics of ginsenosides, 24 rats were divided into four groups (group I ∼ group IV) averagely. […] In group II (control group): the rats received a single dose of vehicle (0.5% CMC-Na), and digoxin (0.5 mg/kg) was also given to the rats by intragastric administration. […] In group IV (control group): the rats received a single dose of vehicle (0.5% CMC-Na), and GE (120 mg/kg) was also given to the rats by gavage. […] Plasma was obtained by centrifugation at 5000 g for 10 min and stored at −20°C before analysis. The plasma / cell samples were extracted using a liquid–liquid extraction technique. To each tube containing 100 µL plasma, 10 µL internal standard (digoxin, 1.0 µg/mL) and 1.0 mL of n-butanol were added. The mixture was then vortex-extracted for 2 min, and centrifuged for 10 min at 10,000 g. […] The plasma concentration-time curves of ginsenosides in rats were obtained by plotting the mean plasma concentrations versus time. Pharmacokinetic parameters were calculated using the WinNonlin 6.3 program (Pharsight Inc., Mountain View, CA). The elimination half-life (t 1/2) value was calculated as 0.693/β, where β is the elimination rate constant calculated from the terminal linear portion of the log plasma concentration-time curve. The total areas under the plasma concentration- time curve from time 0 to the last quantifiable time point (AUC0-t) and from time 0 to infinity (AUC0-∞) were calculated using the log trapezoidal rule. [drawing 3] The maximum plasma concentrations (C max) for ginsenosides were obtained by visual inspection of the plasma concentration-time curve, whereas the initial drug concentration (the extrapolated concentration at zero time) of the drug after intravenous injection was calculated by back-extrapolation of the plasma concentration-time curve to the y-axis.

[4] = system: LLC-PK1 cells (lacking P-gp); test: Uptake (intracellular accumulation) of digoxin and ginsenosides in LLC-PK1 cells; assay type: in vitro ADME; details: for Effect of verapamil on intracellular accumulation: 10 µM verapamil; for Effect of SLE on intracellular accumulation: SLE 2.0 and 10.0 µg/mL
Protocol: as §1
LLC-PK1 and L-MDR1 cells were incubated with SLE (2.0 and 10.0 µg/mL) or verapamil (10 µM) for 1.0 h, and then were washed to discard SLE or verapamil before adding 100 µg/mL of GE. The accumulation of GE lasted for 2 h, and the intracellular concentrations of ginsenosides were measured by LC/MS. All experiments were conducted in triplicate.

P-gp (MDR1) = P-gp (MDR1) (Homo sapiens, UniProt P08183); test: Transport of digoxin and ginsenosides across L-MDR1 cell monolayers (efflux ratio); assay type: in vitro ADME; details: human, read-out: Efflux ratio (Papp BL-AP / Papp AP-BL)
Sequence of P-gp (MDR1) (P08183 whole entry): as above
Protocol: as §1, §2, §3, §4

[5] = control: single vehicle (0.5% sodium CMC)
[6] = LLC-PK1, pH 7.4, L-MDR1 cells, control (absence of verapamil), GE 100 µg/mL, 2 h
[7] = LLC-PK1, pH 7.4, with verapamil 10 µM, L-MDR1 cells, presence of 10 µM verapamil

Row | SMILES | Effect of SLE on transport (AP→BL, BL→AP) [1] | P-gp substrate classification [2] | half-life [3, 5] [h] | AUC ([3]; control: single vehicle) [µg·h/mL] | Cmax ([3]; control: single vehicle) [µg/mL] | AUC(0-inf) ([3]; control: single vehicle) [µg·h/mL] | MRT inf ([3]; control: single vehicle) [h] | Tmax ([3]; control: single vehicle) [h] | AUC ([3]; single SLE 500 mg/kg ig) [µg·h/mL] | Cmax ([3]; single SLE 500 mg/kg ig) [µg/mL] | AUC(0-inf) ([3]; single SLE 500 mg/kg ig) [µg·h/mL] | MRT inf ([3]; single SLE 500 mg/kg ig) [h] | Tmax ([3]; single SLE 500 mg/kg ig) [h] | half-life ([3]; single SLE 500 mg/kg ig) [h] | Cl_F_obs ([3]; control: single vehicle) [L/h] | Cl_F_obs ([3]; single SLE 500 mg/kg ig) [L/h] | Effect of SLE treatment on Cmax [3] | Increase of AUC (AUC0-∞) by coadministration of SLE [3] [fold] | Effect of verapamil on intracellular accumulation [4] | Effect of SLE on intracellular accumulation [4] | also measured
1 | CC(C)=CCC[C@](C)(O[C@@H]1O[C@H](CO[C@@H]2OC[C@H](O)[C@H](O)[C@H]2O)[C@@H](O)[C@H](O)[C@H]1O)[C@H]1CC[C@]2(C)[C@@H]1[C@H](O)C[C@@H]1[C@@]3(C)CC[C@H](O[C@@H]4O[C@H](CO)[C@@H](O)[C@H](O)[C@H]4O[C@@H]4O[C@H](CO)[C@@H](O)[C@H](O)[C@H]4O)C(C)(C)[C@@H]3CC[C@]12C [Rb2, ginsenoside Rb2] | No transport difference | moderate P-gp substrates | 19.4 ± 2.87 | 10.2 ± 1.71 | 0.33 ± 0.0709 | 10.6 ± 1.73 | 27.9 ± 4.2 | 7 ± 2 | 22.3 ± 5.27 | 0.541 ± 0.045 | 23.2 ± 5.57 | 25.2 ± 3.63 | 9.5 ± 3 | 19 ± 3.84 | 0.012 ± 0.003 | 0.004 ± 0.001 | significantly enhanced | 2.18 | no significant difference | no significant difference | AUCINF_obs ([3]; control: single vehicle): 10.551 ± 1.728 µg·h/mL; AUCINF_obs ([3]; single SLE 500 mg/kg ig): 23.198 ± 5.566 µg·h/mL
2 | C[C@H]1O[C@@H](O[C@H]2[C@@H](O)C[C@H](O[C@H]3[C@@H](O)C[C@H](O[C@H]4CC[C@@]5(C)[C@H](CC[C@@H]6[C@@H]5C[C@@H](O)[C@]5(C)[C@@H](C7=CC(=O)OC7)CC[C@]65O)C4)O[C@@H]3C)O[C@@H]2C)C[C@H](O)[C@@H]1O [Digoxin, digoxin, reference compound] | No transport difference | – | 3.08 ± 1.23 | 0.0618 ± 0.0134 | 0.015 ± 0.00507 | 0.0675 ± 0.0134 | 5.15 ± 1.09 | 1.28 ± 0.36 | 0.0844 ± 0.00725 | 0.0175 ± 0.00226 | 0.091 ± 0.00839 | 5.06 ± 0.42 | 1.58 ± 0.38 | 2.98 ± 0.36 | 7.66 ± 1.53 | 5.53 ± 0.48 | – | – | no significant difference | no significant difference | Effect of verapamil on transport (efflux ratio) [1]: No transport difference; efflux ratio at 2 h, 100 µg/mL (P-gp (MDR1); [6]): 26.2; efflux ratio at 2 h, 100 µg/mL (P-gp (MDR1); [7]): 8.23; Effect of verapamil on efflux ratio / Papp [2]: significantly decrease of ER; Effect of SLE on efflux ratio / transport [2]: significantly decreased
3 | CC(C)=CCC[C@](C)(O[C@@H]1O[C@H](CO[C@@H]2O[C@H](CO)[C@@H](O)[C@H](O)[C@H]2O)[C@@H](O)[C@H](O)[C@H]1O)[C@H]1CC[C@]2(C)[C@@H]1[C@H](O)C[C@@H]1[C@@]3(C)CC[C@H](O[C@@H]4O[C@H](CO)[C@@H](O)[C@H](O)[C@H]4O[C@@H]4O[C@H](CO)[C@@H](O)[C@H](O)[C@H]4O)C(C)(C)[C@@H]3CC[C@]12C [Rb1, ginsenoside Rb1] | No transport difference | moderate P-gp substrates | 13.3 ± 2.43 | 14.3 ± 2.38 | 0.491 ± 0.0614 | 14.4 ± 2.47 | 23.1 ± 4.31 | 7.5 ± 1 | 18.5 ± 5.78 | 0.651 ± 0.127 | 18.5 ± 5.73 | 23.5 ± 2.68 | 11 ± 2 | 11.3 ± 2.74 | 0.007 ± 0.001 | 0.006 ± 0.002 | significantly enhanced | 1.29 | no significant difference | no significant difference | Effect of verapamil on transport (efflux ratio) [1]: No transport difference; efflux ratio at 2 h, 100 µg/mL (P-gp (MDR1); [6]): > 3.5; efflux ratio at 2 h, 100 µg/mL (P-gp (MDR1); [7]): 1.57; Effect of verapamil on efflux ratio / Papp [2]: significantly decrease of ER; Effect of SLE on efflux ratio / transport [2]: significantly decreased
